Data as given in patent US20240059682A1, “THYROID HORMONE RECEPTOR BETA AGONIST COMPOUNDS” (Terns Pharmaceuticals, Inc., priority 2021, published 2024).
Like-named read-outs stand apart in the source and are kept apart here. Each block holds one compound with its values, some of them ahead of it.

What was measured:
THR-β/RXR-α = THR-β/RXR-α (Homo sapiens (Human), UniProt P10828); experiment: THR/RXR heterodimer assay (THR-β/RXR-α); assay type: biochemical; conditions: RXR heterodimer assay; for THRß-Selectivity: normalized to T3 activity
THR-β/RXR-α, sequence (P10828 202-461): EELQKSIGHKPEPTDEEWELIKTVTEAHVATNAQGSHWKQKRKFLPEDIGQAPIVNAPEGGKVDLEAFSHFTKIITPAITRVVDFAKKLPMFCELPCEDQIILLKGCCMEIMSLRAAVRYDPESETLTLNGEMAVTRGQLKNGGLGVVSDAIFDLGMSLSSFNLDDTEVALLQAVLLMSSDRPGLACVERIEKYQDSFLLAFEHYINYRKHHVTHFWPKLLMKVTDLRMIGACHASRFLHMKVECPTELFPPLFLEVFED
THR-β/RXR-α, sequence (P19793 225-462 partner): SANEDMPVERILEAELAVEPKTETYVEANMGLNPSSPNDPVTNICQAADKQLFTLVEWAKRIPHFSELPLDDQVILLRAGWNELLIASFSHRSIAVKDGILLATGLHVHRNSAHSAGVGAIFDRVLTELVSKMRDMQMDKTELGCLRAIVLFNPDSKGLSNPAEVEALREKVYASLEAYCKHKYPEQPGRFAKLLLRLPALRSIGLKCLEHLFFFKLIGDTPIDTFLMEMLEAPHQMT
THR-β/RXR-α, sequence (Q15596 679-703 partner): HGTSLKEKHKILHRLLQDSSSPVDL

[1] = Pharmacokinetics study in rats; assay type: in vivo, male Sprague-Dawley (SD) rats; conditions: male SD rats; for AUC(0-inf) / half-life / clearance / Vd / bioavailability / AUC(0-t) / Cmax: Sprague-Dawley, rat, plasma; for clearance: mean±SD, read-out: plasma clearance (CL); for Vd: read-out: volume of distribution (Vdss)
Method: Examples 12 and 14 were administered via a 30-minute intravenous (IV) infusion at approximately 1 mg/kg and orally at approximately 3 mg/kg to male Sprague-Dawley (SD) rats. The concentrations of Examples 12 and 14 in rat plasma was determined with an LC-MS/MS method.

[2] = Tissue distribution in rats; assay type: in vivo, male Sprague-Dawley (SD) rats; conditions: 2 hours post-dose, male SD rats; for Kp at 2 h / concentration at 2 h: Sprague-Dawley, rat
Method: Examples 12 and 14 were administered via a 30-minute intravenous (IV) infusion at approximately 2 mg/kg to jugular vein cannulated male Sprague-Dawley (SD) rats. All animals were euthanized by CO2 inhalation at 2 hours post-dose. The concentrations of Examples 12 and 14 in rat plasma and liver, heart and kidney tissues were determined with an LC-MS/MS method.

THR-α/RXR-α = THR-α/RXR-α (Homo sapiens (Human), UniProt P10827); experiment: THR/RXR heterodimer assay (THR-α/RXR-α); assay type: biochemical; conditions: RXR heterodimer assay; read-out: EC50 THRα-het
THR-α/RXR-α, sequence (P10827 other isoform, or with tags, fused parts or gaps): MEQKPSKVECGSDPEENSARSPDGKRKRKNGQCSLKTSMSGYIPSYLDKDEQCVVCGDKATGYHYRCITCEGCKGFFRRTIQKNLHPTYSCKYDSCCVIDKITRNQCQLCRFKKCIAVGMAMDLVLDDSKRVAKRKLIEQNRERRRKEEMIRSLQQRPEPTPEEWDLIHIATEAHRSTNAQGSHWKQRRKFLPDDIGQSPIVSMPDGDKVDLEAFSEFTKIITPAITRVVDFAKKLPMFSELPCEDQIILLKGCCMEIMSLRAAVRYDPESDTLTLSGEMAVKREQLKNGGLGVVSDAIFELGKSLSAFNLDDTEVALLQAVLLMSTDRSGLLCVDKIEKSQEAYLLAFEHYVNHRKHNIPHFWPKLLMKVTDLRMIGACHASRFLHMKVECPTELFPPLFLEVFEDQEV
THR-α/RXR-α, sequence (P19793 225-462 partner): as the sequence (P19793 225-462 partner) above

TR beta-LBD = TR beta-LBD (Homo sapiens (Human), UniProt P10828); conditions: TR-FRET; derived from T3-selectivity normalized data
TR beta-LBD, sequence (P10828 whole entry, looked up, the tested form may be a part): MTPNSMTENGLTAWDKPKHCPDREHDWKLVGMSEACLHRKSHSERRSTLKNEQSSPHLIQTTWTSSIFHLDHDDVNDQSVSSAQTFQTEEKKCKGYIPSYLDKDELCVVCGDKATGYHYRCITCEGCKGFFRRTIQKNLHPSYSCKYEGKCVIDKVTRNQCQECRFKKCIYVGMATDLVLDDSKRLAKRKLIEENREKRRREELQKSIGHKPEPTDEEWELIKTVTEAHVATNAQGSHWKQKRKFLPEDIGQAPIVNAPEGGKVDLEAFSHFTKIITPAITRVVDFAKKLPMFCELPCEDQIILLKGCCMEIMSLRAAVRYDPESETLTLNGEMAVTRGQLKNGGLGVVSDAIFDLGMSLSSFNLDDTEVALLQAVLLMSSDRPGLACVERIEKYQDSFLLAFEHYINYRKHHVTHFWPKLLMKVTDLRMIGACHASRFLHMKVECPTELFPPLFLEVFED

SMILES: COc1nc2ccc(Oc3c(Cl)cc(NC(=O)c4noc(=O)[nH]4)cc3Cl)cc2n1C [Example 3, N-(3,5-dichloro-4-((2-methoxy-1-methyl-1H-benzo[d]imidazol-6-yl)oxy)phenyl)-5-oxo-4,5-dihydro-1,2,4-oxadiazole-3-carboxamide]
THRß-Selectivity (THR-β/RXR-α): 9.7

SMILES: CC1(n2c(=O)[nH]c3ccc(Oc4c(Cl)cc(NC(=O)c5noc(=O)[nH]5)cc4Cl)cc32)CC1 [Example 13, N-(3,5-dichloro-4-((3-(1-methylcyclopropyl)-2-oxo-2,3-dihydro-1H-benzo[d]imidazol-5-yl)oxy)phenyl)-5-oxo-4,5-dihydro-1,2,4-oxadiazole-3-carboxamide]
THRß-Selectivity (THR-β/RXR-α): 11.0

SMILES: COc1nc2ccc(Oc3c(Cl)cc(-n4nc(C#N)c(=O)[nH]c4=O)cc3Cl)cc2n1C1CC1 [Example 2, 2-(3,5-dichloro-4-((1-cyclopropyl-2-methoxy-1H-benzo[d]imidazol-6-yl)oxy)phenyl)-3,5-dioxo-2,3,4,5-tetrahydro-1,2,4-triazine-6-carbonitrile]
THRß-Selectivity (THR-β/RXR-α): 16.9

SMILES: N#Cc1nn(-c2cc(Cl)c(Oc3ccc4[nH]c(=O)n(C5CC5)c4c3)c(Cl)c2)c(=O)[nH]c1=O [Example 8, 2-(3,5-dichloro-4-((3-cyclopropyl-2-oxo-2,3-dihydro-1H-benzo[d]imidazol-5-yl)oxy)phenyl)-3,5-dioxo-2,3,4,5-tetrahydro-1,2,4-triazine-6-carbonitrile]
THRß-Selectivity (THR-β/RXR-α): 7.2

SMILES: CC1(n2c(=O)[nH]c3ccc(Oc4c(Cl)cc(-n5nc(C#N)c(=O)[nH]c5=O)cc4Cl)cc32)CC1 [Example 14, 2-(3,5-dichloro-4-((3-(1-methylcyclopropyl)-2-oxo-2,3-dihydro-1H-benzo[d]imidazol-5-yl)oxy)phenyl)-3,5-dioxo-2,3,4,5-tetrahydro-1,2,4-triazine-6-carbonitrile]
THRß-Selectivity (THR-β/RXR-α): 12.0
AUC(0-inf) ([1]; IV infusion 1.09 mg/kg): 550 ± 19.6 ng·h/mL
half-life ([1]; IV infusion 1.09 mg/kg): 1.51 ± 0.54 h
clearance ([1]; IV infusion 1.09 mg/kg): 30.3 ± 1.07 mL/min/kg
Vd ([1]; IV infusion 1.09 mg/kg): 1.28 ± 0.387 L/kg
bioavailability ([1]; oral 3.18 mg/kg vs IV 1.09 mg/kg): 11.5%
AUC(0-inf) ([1]; oral 3.18 mg/kg): 190 ± 28.7 ng·h/mL
AUC(0-t) ([1]; oral 3.18 mg/kg): 178 ± 25.5 ng·h/mL
Cmax ([1]; oral 3.18 mg/kg): 31 ± 5.92 ng/mL
time post-dose at which Cmax was reached ([1]; oral 3.18 mg/kg): 4.0 ± 2.0 h
tissue concentration in heart ([2]; IV infusion 2.16 mg/kg): below the limit of detection
Kp at 2 h ([2]; kidney/plasma, IV infusion 2.16 mg/kg, read-out: tissue/plasma ratio kidney/plasma): 6.25 ± 2.13
concentration at 2 h ([2]; kidney, IV infusion 2.16 mg/kg, read-out: tissue concentration in kidney): 94 ± 23.5 ng/g
Kp at 2 h ([2]; liver/plasma, IV infusion 2.16 mg/kg, read-out: tissue/plasma ratio liver/plasma): 29 ± 24.9
concentration at 2 h ([2]; liver, IV infusion 2.16 mg/kg, read-out: tissue concentration in liver): 413 ± 303 ng/g
concentration at 2 h ([2]; plasma, IV infusion 2.16 mg/kg, read-out: plasma concentration): 15.5 ± 3.7 ng/mL

SMILES: COc1nc2ccc(Oc3c(Cl)cc(-n4nc(C#N)c(=O)[nH]c4=O)cc3Cl)cc2n1C(C)(C)C [Example 15, 2-(4-((1-(tert-butyl)-2-methoxy-1H-benzo[d]imidazol-6-yl)oxy)-3,5-dichlorophenyl)-3,5-dioxo-2,3,4,5-tetrahydro-1,2,4-triazine-6-carbonitrile]
THRß-Selectivity (THR-β/RXR-α): 10.3

THRß-Selectivity (THR-β/RXR-α): 6.7
EC50 (THR-β/RXR-α; read-out: EC50 THRß-het): 480 nM
EC50 (THR-α/RXR-α): 3230 nM
SMILES: COc1nc2ccc(Oc3c(Cl)cc(NC(=O)c4noc(=O)[nH]4)cc3Cl)cc2n1C1(C(F)(F)F)CC1 [Example 24]

SMILES: O=C(Nc1cc(Cl)c(Oc2ccc3[nH]c(=O)n(C4(C(F)F)CC4)c3c2)c(Cl)c1)c1noc(=O)[nH]1 [Example 17, N-(3,5-dichloro-4-((3-(1-(difluoromethyl)cyclopropyl)-2-oxo-2,3-dihydro-1H-benzo[d]imidazol-5-yl)oxy)phenyl)-5-oxo-4,5-dihydro-1,2,4-oxadiazole-3-carboxamide]
THRß-Selectivity (THR-β/RXR-α): 10.1

SMILES: CC(C)(C)n1c(=O)[nH]c2ccc(Oc3c(Cl)cc(-n4nc(C#N)c(=O)[nH]c4=O)cc3Cl)cc21 [Example 16, 2-(4-((3-(tert-butyl)-2-oxo-2,3-dihydro-1H-benzo[d]imidazol-5-yl)oxy)-3,5-dichlorophenyl)-3,5-dioxo-2,3,4,5-tetrahydro-1,2,4-triazine-6-carbonitrile]
THRß-Selectivity (THR-β/RXR-α): 9.8

SMILES: CC(C)n1c(=O)[nH]c2ccc(Oc3c(Cl)cc(-n4nc(C#N)c(=O)[nH]c4=O)cc3Cl)cc21 [Example 5, 2-(3,5-dichloro-4-((3-isopropyl-2-oxo-2,3-dihydro-1H-benzo[d]imidazol-5-yl)oxy)phenyl)-3,5-dioxo-2,3,4,5-tetrahydro-1,2,4-triazine-6-carbonitrile]
THRß-Selectivity (THR-β/RXR-α): 5.8

SMILES: Cn1c(=O)[nH]c2ccc(Oc3c(Cl)cc(NC(=O)c4noc(=O)[nH]4)cc3Cl)cc21 [Example 19, N-(3,5-dichloro-4-((3-methyl-2-oxo-2,3-dihydro-1H-benzo[d]imidazol-5-yl)oxy)phenyl)-5-oxo-4,5-dihydro-1,2,4-oxadiazole-3-carboxamide]
THRß-Selectivity (THR-β/RXR-α): 5.3
THRß-Selectivity (TR beta-LBD): 14.1

SMILES: N#Cc1nn(-c2cc(Cl)c(Oc3ccc4[nH]c(=O)n(C5(C(F)F)CC5)c4c3)c(Cl)c2)c(=O)[nH]c1=O [Example 18, 2-(3,5-dichloro-4-((3-(1-(difluoromethyl)cyclopropyl)-2-oxo-2,3-dihydro-1H-benzo[d]imidazol-5-yl)oxy)phenyl)-3,5-dioxo-2,3,4,5-tetrahydro-1,2,4-triazine-6-carbonitrile]
THRß-Selectivity (THR-β/RXR-α): 8.2

SMILES: COc1nc2ccc(Oc3c(Cl)cc(NC(=O)c4noc(=O)[nH]4)cc3Cl)cc2n1C1(C)CC1 [Example 11, N-(3,5-dichloro-4-((2-methoxy-1-(1-methylcyclopropyl)-1H-benzo[d]imidazol-6-yl)oxy)phenyl)-5-oxo-4,5-dihydro-1,2,4-oxadiazole-3-carboxamide]
THRß-Selectivity (THR-β/RXR-α): 17.7

SMILES: O=C(Nc1cc(Cl)c(Oc2ccc3[nH]c(=O)n(C4CC4)c3c2)c(Cl)c1)c1noc(=O)[nH]1 [Example 1, N-(3,5-dichloro-4-((3-cyclopropyl-2-oxo-2,3-dihydro-1H-benzo[d]imidazol-5-yl)oxy)phenyl)-5-oxo-4,5-dihydro-1,2,4-oxadiazole-3-carboxamide]
THRß-Selectivity (THR-β/RXR-α): 5.1

SMILES: COc1nc2ccc(Oc3c(Cl)cc(-n4nc(C#N)c(=O)[nH]c4=O)cc3Cl)cc2n1C1(C)CC1 [Example 12, 2-(3,5-dichloro-4-((2-methoxy-1-(1-methylcyclopropyl)-1H-benzo[d]imidazol-6-yl)oxy)phenyl)-3,5-dioxo-2,3,4,5-tetrahydro-1,2,4-triazine-6-carbonitrile]
THRß-Selectivity (THR-β/RXR-α): 18.7
AUC(0-inf) ([1]; IV infusion 1.09 mg/kg): 3780 ± 704 ng·h/mL
half-life ([1]; IV infusion 1.09 mg/kg): 2.67 ± 0.53 h
clearance ([1]; IV infusion 1.09 mg/kg): 4.51 ± 0.883 mL/min/kg
Vd ([1]; IV infusion 1.09 mg/kg): 0.638 ± 0.218 L/kg
bioavailability ([1]; oral 3.0 mg/kg vs IV 1.09 mg/kg): 95.2%
AUC(0-inf) ([1]; oral 3.0 mg/kg): 10800 ± 5630 ng·h/mL
AUC(0-t) ([1]; oral 3.0 mg/kg): 10800 ± 5630 ng·h/mL
Cmax ([1]; oral 3.0 mg/kg): 2020 ± 793 ng/mL
time post-dose at which Cmax was reached ([1]; oral 3.0 mg/kg): 3.33 ± 1.15 h
Kp at 2 h ([2]; heart/plasma, IV infusion 2.0 mg/kg, read-out: tissue/plasma ratio heart/plasma): 1.65 ± 2.33
concentration at 2 h ([2]; heart, IV infusion 2.0 mg/kg, read-out: tissue concentration in heart): 995 ± 1430 ng/g
Kp at 2 h ([2]; kidney/plasma, IV infusion 2.0 mg/kg, read-out: tissue/plasma ratio kidney/plasma): 1.01 ± 0.212
concentration at 2 h ([2]; kidney, IV infusion 2.0 mg/kg, read-out: tissue concentration in kidney): 558 ± 103 ng/g
Kp at 2 h ([2]; liver/plasma, IV infusion 2.0 mg/kg, read-out: tissue/plasma ratio liver/plasma): 5.62 ± 1.09
concentration at 2 h ([2]; liver, IV infusion 2.0 mg/kg, mean±SD, read-out: tissue concentration in liver): 3040 ± 350 ng/g
concentration at 2 h ([2]; plasma, IV infusion 2.0 mg/kg, read-out: plasma concentration): 569 ± 145 ng/mL

SMILES: CC(C)(C)n1c(=O)[nH]c2ccc(Oc3c(Cl)cc(NC(=O)c4noc(=O)[nH]4)cc3Cl)cc21 [Example 10, N-(4-((3-(tert-butyl)-2-oxo-2,3-dihydro-1H-benzo[d]imidazol-5-yl)oxy)-3,5-dichlorophenyl)-5-oxo-4,5-dihydro-1,2,4-oxadiazole-3-carboxamide]
THRß-Selectivity (THR-β/RXR-α): 7.7

SMILES: COc1nc2ccc(Oc3c(Cl)cc(NC(=O)c4noc(=O)[nH]4)cc3Cl)cc2n1C(C)C [Example 6, N-(3,5-dichloro-4-((1-isopropyl-2-methoxy-1H-benzo[d]imidazol-6-yl)oxy)phenyl)-5-oxo-4,5-dihydro-1,2,4-oxadiazole-3-carboxamide]
THRß-Selectivity (THR-β/RXR-α): 16.9

SMILES: COc1nc2ccc(Oc3c(Cl)cc(NC(=O)c4noc(=O)[nH]4)cc3Cl)cc2n1C1CC1 [Example 7, N-(3,5-dichloro-4-((1-cyclopropyl-2-methoxy-1H-benzo[d]imidazol-6-yl)oxy)phenyl)-5-oxo-4,5-dihydro-1,2,4-oxadiazole-3-carboxamide]
THRß-Selectivity (THR-β/RXR-α): 21.2
